From patent US10774064B2 (Cadent Therapeutics, Inc., priority 2016, dated 2020)

molecular target: T1, small-conductance Ca2+-activated K+ channels (SK channels, subtype 2) (Homo sapiens, UniProt Q9H2S1); assay: whole-cell patch-clamp of ionic current through SK2 channels in HEK293 cells (SC100); format: cell-based; settings: concentration that increases the basal current by 100%; HEK293 cells expressing SK2 channels
T1 construct: expressed in transfected cells; host or cells: HEK293
How it was run: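 SC100, the concentration doubling basal current (a 100% increase), was taken from SK2 currents recorded by whole-cell patch-clamp in SK2-expressing HEK293 cells.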

Structure (SMILES)	SC100
Cc1cc(C)n(-c2cc(NCc3ncco3)cc(NC3CCC(F)(F)CC3)n2)n1 [Compound 259, N2-(4,4-difluorocyclohexyl)-6-(3,5-dimethyl-1H-pyrazol-1-yl)-N4-(oxazol-2-ylmethyl)pyridine-2,4-diamine]	+ (+ means >1 uM)
CC(=O)N1CC(Oc2cc(NC3CCC(F)(F)CC3)nc(-n3ccc(CF)n3)n2)C1 [Compound 289, 1-(3-((6-((4,4-difluorocyclohexyl)amino)-2-(3-(fluoromethyl)-1H-pyrazol-1-yl)pyrimidin-4-yl)oxy)azetidin-1-yl)ethan-1-one]	++ (++ means 200 nM-1000 nM)
FCc1ccn(-c2cc(OC3COC3)cc(NC3CCC(F)(F)CC3)n2)n1 [Compound 302, N-(4,4-difluorocyclohexyl)-6-(3-(fluoromethyl)-1H-pyrazol-1-yl)-4-(oxetan-3-yloxy)pyridin-2-amine]	++ (++ means 200 nM-1000 nM)
Cc1cc(C)n(-c2cc(N3C[C@H]4C[C@@H]3CN4)nc(NC3CCC(F)(F)CC3)n2)n1 [Compound 104, 4-((1R,4R)-2,5-diazabicyclo[2.2.1]heptan-2-yl)-N-(4,4-difluorocyclohexyl)-6-(3,5-dimethyl-1H-pyrazol-1-yl)pyrimidin-2-amine]	++ (++ means 200 nM-1000 nM)
CC1CN(c2cc(NC3CCC(F)(F)CC3)nc(-n3ccc(CF)n3)n2)CC(C)O1 (stereo not shown) [Compound 294, N-(4,4-difluorocyclohexyl)-6-(2,6-dimethylmorpholino)-2-(3-(fluoromethyl)-1H-pyrazol-1-yl)pyrimidin-4-amine]	++ (++ means 200 nM-1000 nM)
Cc1cc(C)n(-c2cc(OCc3cnnn3C)cc(NC3CCC(F)(F)CC3)n2)n1 [Compound 268, N-(4,4-difluorocyclohexyl)-6-(3,5-dimethyl-1H-pyrazol-1-yl)-4-((1-methyl-1H-1,2,3-triazol-5-yl)methoxy)pyridin-2-amine]	++ (++ means 200 nM-1000 nM)
CC(C)(C)C(=O)N1CC(Oc2cc(NC3CCC(F)(F)CC3)nc(-c3nc(CF)cs3)n2)C1 [Compound 316, 1-(3-((6-((4,4-difluorocyclohexyl)amino)-2-(4-(fluoromethyl)thiazol-2-yl)pyrimidin-4-yl)oxy)azetidin-1-yl)-2,2-dimethylpropan-1-one]	+++ (+++ means <200 nM)
FCc1ccn(-c2nc(NC3CCC(F)(F)CC3)cc(N3CCOCC3)n2)n1 [Compound 280, N-(4,4-difluorocyclohexyl)-2-(3-(fluoromethyl)-1H-pyrazol-1-yl)-6-morpholinopyrimidin-4-amine]	+ (+ means >1 uM)
CCc1cc(-n2nc(C)cc2C)nc(NC2CCC(F)(F)CC2)n1 [Compound 169, N-(4,4-difluorocyclohexyl)-4-(3,5-dimethyl-1H-pyrazol-1-yl)-6-ethylpyrimidin-2-amine]	++ (++ means 200 nM-1000 nM)
Cc1cc(NC2CCC(F)(F)CC2)nc(-c2nc(C(C)C)cs2)n1 [Compound 278, N-(4,4-difluorocyclohexyl)-2-(4-isopropylthiazol-2-yl)-6-methylpyrimidin-4-amine]	++ (++ means 200 nM-1000 nM)

same assay, conditions: whole-cell patch-clamp, HEK293 cells expressing SK2 channels; concentration that increases the basal current by 100%

Structure (SMILES)	SC100 (μM)
Cc1ccn(-c2nc(NC3CCC(F)(F)CC3)cc(OC3CC(C)(O)C3)n2)n1 (stereo not shown) [NSSy5902, 3-((6-((4,4-difluorocyclohexyl)amino)-2-(3-methyl-1H-pyrazol-1-yl)pyrimidin-4-yl)oxy)-1-methylcyclobutan-1-ol]	++ (++ means 200 nM-1000 nM)
CC(=O)c1cc(NC2CCC(F)(F)CC2)cc(-c2nc(C)cs2)c1 [IN11104-059-P1, 1-(3-((4,4-difluorocyclohexyl)amino)-5-(4-methylthiazol-2-yl)phenyl) ethan-1-one]	+ (+ means >1 uM)
Cc1cc(C)n(-c2cc(N3CC4(COC4)C3)nc(NC3CCC(F)CC3)n2)n1 (stereo not shown) [NSSy6471, 4-(3,5-dimethyl-1H-pyrazol-1-yl)-N-(4-fluorocyclohexyl)-6-(2-oxa-6-azaspiro[3.3]heptan-6-yl)pyrimidin-2-amine]	+ (+ means >1 uM)
COc1ccn(-c2nc(NC3CCC(F)(F)CC3)cc(N3CCOCC3)n2)n1 [NSSy6993]	++ (++ means 200 nM-1000 nM)
Cc1csc(-c2cc(N3CC(C)(O)C3)cc(NC3CCC(F)(F)CC3)n2)n1 [NSSy5687]	++ (++ means 200 nM-1000 nM)
Cc1csc(-c2nc(CC3CCC(F)(F)CC3)cc(N3CCOCC3)n2)n1 [NSSy6263, 4-(6-((4,4-difluorocyclohexyl)methyl)-2-(4-methylthiazol-2-yl)pyrimidin-4-yl)morpholine]	+ (+ means >1 uM)
Cc1ccn(-c2cc(C3CCN(C)CC3)cc(NC3CCC(F)(F)CC3)n2)n1 [NSSy6888]	+++ (+++ means <200 nM)
CCOc1cc(NC2CCC(F)(F)CC2)nc(-n2nc(C)cc2C)n1 [IN11121-042-P1, N-(4,4-difluorocyclohexyl)-2-(3,5-dimethyl-1H-pyrazol-1-yl)-6-ethoxypyrimidin-4-amine]	+ (+ means >1 uM)
Cc1cc(-n2ccc(C(F)(F)F)n2)nc(NC2CCC(F)(F)CC2)n1 [NSSy6591]	+ (+ means >1 uM)
Cc1csc(-c2nc(NC3CCC(F)CC3)cc(OC3CN(C(=O)C(C)C)C3)n2)n1 (stereo not shown) [NSSy5709]	++ (++ means 200 nM-1000 nM)
COc1cnc(-n2nc(C)cc2C)nc1NC1CCC(F)(F)CC1 [NSSy7031]	+ (+ means >1 uM)
COc1cc(NC2CCC3(CC2)CC3)nc(-c2nc(C)cs2)n1 [IN11106-033-P1]	+ (+ means >1 uM)
Cc1ccn(-c2cc(COc3cccnn3)cc(NC3CCC(F)(F)CC3)n2)n1 [IN11217-056-P1, N-(4,4-difluorocyclohexyl)-6-(3-methyl-1H-pyrazol-1-yl)-4-((pyridazin-3-yloxy)methyl)pyridin-2-amine]	++ (++ means 200 nM-1000 nM)
Cc1nc(NC2CCC(F)(F)CC2)nc(-n2nc(C)c(Br)c2C)c1Br [NSSy6736, 5-bromo-4-(4-bromo-3,5-dimethyl-1H-pyrazol-1-yl)-N-(4,4-difluorocyclohexyl)-6-methylpyrimidin-2-amine]	+ (+ means >1 uM)
COC(=O)N1CC(Oc2nc(-c3nc(C)cs3)nc(NC3CCC(F)(F)CC3)c2Br)C1 [NSSy5868, methyl 3-((5-bromo-6-((4,4-difluorocyclohexyl)amino)-2-(4-methylthiazol-2-yl)pyrimidin-4-yl)oxy)azetidine-1-carboxylate]	+++ (+++ means <200 nM)
Cc1csc(-c2nc(NC3CCC(F)(F)CC3)cc(OC3CCS(=O)(=O)CC3)n2)n1 [NSSy6253]	++ (++ means 200 nM-1000 nM)
Cc1csc(-c2nc(NC3CCC(F)(F)CC3)cc(N(C)C)n2)n1 [IN11055-046-P1]	++ (++ means 200 nM-1000 nM)

Structure (SMILES)	SC100 (μM)
CNC(=O)Oc1c(NC2CCC(F)(F)CC2)nc(-c2nc(C)cs2)nc1OC [IN11106-065-P1, 4-((4,4-difluorocyclohexyl)amino)-6-methoxy-2-(4-methylthiazol-2-yl)pyrimidin-5-yl methylcarbamate]	+ (+ means >1 uM)
CC(=O)N(C)Cc1cc(NC2CCC(F)(F)CC2)nc(-c2nc(C)cs2)n1 [IN11059-090-P1]	++ (++ means 200 nM-1000 nM)
CC(=O)N1CCC(Oc2cc(NC3CCC(F)(F)CC3)nc(-n3ccc(C)n3)c2)CC1 [IN11218-025-P1, 1-(4-((2-((4,4-difluorocyclohexyl)amino)-6-(3-methyl-1H-pyrazol-1-yl)pyridin-4-yl)oxy)piperidin-1-yl)ethan-1-one]	++ (++ means 200 nM-1000 nM)
COc1ccn(-c2cc(N3CCN(C(C)=O)CC3)nc(NC3CCC(F)(F)CC3)n2)n1 [NSSy6936]	+ (+ means >1 uM)
Cc1csc(-c2cc(OCc3ncn(C)n3)cc(NC3CCC(F)(F)CC3)n2)n1 [NSSy5686]	++ (++ means 200 nM-1000 nM)
Cc1csc(-c2cc(N3CCN(C)C(=O)C3)cc(NC3CCC(F)(F)CC3)n2)n1 [NSSy5674, 4-(2-((4,4-difluorocyclohexyl)amino)-6-(4-methylthiazol-2-yl)pyridin-4-yl)-1-methylpiperazin-2-one]	+++ (+++ means <200 nM)
COc1c(NC2CCC(F)(F)CC2)nc(-c2nc(C)cs2)nc1N1CCOCC1 [IN11125-001-P1]	+ (+ means >1 uM)
COC(=O)N1CCCC(OCc2cc(NC3CCC(F)(F)CC3)nc(-n3ccc(C)n3)c2)C1 (stereo not shown) [IN11067-004-P1]	++ (++ means 200 nM-1000 nM)
Cc1csc(-c2cc(N)cc(NC3CCC(F)(F)CC3)n2)n1 [IN11063-087-P1, N2-(4,4-difluorocyclohexyl)-6-(4-methylthiazol-2-yl)pyridine-2,4-diamine]	++ (++ means 200 nM-1000 nM)
Cc1csc(-c2cc(N(C)C3COC3)cc(NC3CCC(F)(F)CC3)n2)n1 [NSSy6288]	++ (++ means 200 nM-1000 nM)
OCc1cc(NC2CCC(F)(F)CC2)nc(-c2nc(C3CC3)cs2)n1 [IN11147-082-P1, (2-(4-cyclopropylthiazol-2-yl)-6-((4,4-difluorocyclohexyl)amino)pyrimidin-4-yl) methanol]	++ (++ means 200 nM-1000 nM)
COc1cccc2c(NC3CCC(F)(F)CC3)nc(-c3nc(C)cs3)nc12 [IN11030-081-P1, N-(4,4-difluorocyclohexyl)-8-methoxy-2-(4-methylthiazol-2-yl) quinazolin-4-amine]	++ (++ means 200 nM-1000 nM)
Cc1csc(-c2nc(NC3CCC(F)(F)CC3)cc(-c3ccccn3)n2)n1 [IN11196-080-P1]	+ (+ means >1 uM)
Cc1csc(-c2nc(NC3CCC(F)(F)CC3)cc(N3CCCC(O)C3)n2)n1 (stereo not shown) [IN10881-023-P2]	++ (++ means 200 nM-1000 nM)
Cc1csc(-c2cc(N3CCC(C4COC4)CC3)cc(NC3CCC(F)(F)CC3)n2)n1 [NSSy5815]	++ (++ means 200 nM-1000 nM)
COC(C)c1cc(NC2CCCCC2(F)F)nc(-c2nc(C)cs2)n1 (stereo not shown) [IN11140-099-P1, N-(2,2-difluorocyclohexyl)-6-(1-methoxyethyl)-2-(4-methylthiazol-2-yl)pyrimidin-4-amine]	+ (+ means >1 uM)
